Assay results: patent publication US12516048B2, “B-lactam compounds, their preparation and use as antibacterial agents” (NINGXIA ACADEMY OF AGRICULTURE AND FORESTRY SCIENCES, priority 2020, dated 2026)

What was measured:
Assay in all cases: MIC determination, broth microdilution (CLSI)
Format in all cases: cell-based
E. coli clinical isolate = conditions: Escherichia coli, Mueller Hinton Broth II, 37° C., 18-24 hours, read-out: Strain 1 MIC
Description: (§1) Compounds of this invention were tested for antimicrobial activity by determining minimum inhibitory concentrations (MICs, in μg/mL) using the broth microdilution method according to the guidelines of the Clinical Laboratories and Standards Institute (“Methods for Dilution Antimicrobial Susceptibility Tests for Bacteria that Grow Aerobically”, Approved standard, 7th ed., Clinical and Laboratory Standards Institute (CLSI) Document M7-A8, Wayne, Pa., USA, 2009.). AZT: aztreonam (AZT) and ceftazidime (CAZ) were used as control antibiotics. Test compounds were dissolved in DMSO. The compounds were then diluted in microbial growth medium (Mueller Hinton Broth II, cation adjusted) resulting in a final concentration range of 0.063-64 μg/mL in serial two-fold dilution. In all cases the final DMSO concentration was less than 0.5%. Bacteria were added to 96-well microtitre plates containing the two-fold dilutions of the compounds; the final cell density was approximately 5×10^5 colony forming units/mL (CFU/mL). Plates were incubated at 37° C. for 18-24 hours and read visually. The MIC, i.e. the lowest concentration of the test compound that inhibited visible growth of the bacteria, was recorded. The same assay conditions were used when the compounds of this invention were tested in combination with β-lactamase inhibitors. While the compounds of this invention were serially diluted as described above, a constant concentration of the inhibitor of 4 mg/L was used.
(§2) Bacterial strains that were used to evaluate the antimicrobial activity using the MIC determination included but were not limited to E. coli clinical isolate, E. coli 8739, K. pneumoniae clinical isolate, K. pneumoniae 700603, E. cloacae clinical isolate, E. cloacae 700323, A. baumannii clinical isolate, A. baumannii 19606, P. aeruginosa clinical isolate, P. aeruginosa 9027.

[1] = test system: A. baumannii clinical isolate; conditions: Acinetobacter baumannii, Mueller Hinton Broth II, 37° C., 18-24 hours, read-out: Strain 7 MIC
Description: as §1, §2

[2] = test system: E. cloacae clinical isolate; conditions: Enterobacter cloacae, Mueller Hinton Broth II, 37° C., 18-24 hours, read-out: Strain5 MIC
Description: as §1, §2

E. coli 8739 = conditions: Escherichia coli, Mueller Hinton Broth II, 37° C., 18-24 hours, read-out: Strain 2 MIC
Description: as §1, §2

P. aeruginosa 9027 = conditions: Pseudomonas aeruginosa, Mueller Hinton Broth II, 37° C., 18-24 hours, read-out: Strain 10 MIC
Description: as §1, §2

K. pneumoniae 700603 = conditions: Klebsiella pneumoniae, Mueller Hinton Broth II, 37° C., 18-24 hours, read-out: Strain 4 MIC
Description: as §1, §2

[3] = test system: K. pneumoniae clinical isolate; conditions: Klebsiella pneumoniae, Mueller Hinton Broth II, 37° C., 18-24 hours, read-out: Strain 3 MIC
Description: as §1, §2

A. baumannii 19606 = conditions: Acinetobacter baumannii, Mueller Hinton Broth II, 37° C., 18-24 hours, read-out: Strain8 MIC
Description: as §1, §2

E. cloacae 700323 = conditions: Enterobacter cloacae, Mueller Hinton Broth II, 37° C., 18-24 hours, read-out: Strain 6 MIC
Description: as §1, §2

[4] = test system: P. aeruginosa clinical isolate; conditions: Pseudomonas aeruginosa, Mueller Hinton Broth II, 37° C., 18-24 hours, read-out: Strain 9 MIC
Description: as §1, §2

SMILES: C[C@H]1[C@H](NC(=O)/C(=N\OC(C)(C)C(=O)O)c2csc(N)n2)C(=O)N1S(=O)(=O)O [AZT, Aztreonam, reference compound]
- MIC (E. coli clinical isolate): > 64 µg/mL
- MIC [1]: > 64 µg/mL
- MIC [2]: > 64 µg/mL
- MIC (E. coli 8739): 16 µg/mL
- MIC (P. aeruginosa 9027): 16 µg/mL
- MIC (K. pneumoniae 700603): 64 µg/mL
- MIC [3]: 64 µg/mL
- MIC (A. baumannii 19606): 32 µg/mL
- MIC (E. cloacae 700323): > 64 µg/mL
- MIC [4]: > 64 µg/mL

SMILES: CC(C)(O/N=C(\C(=O)N[C@@H]1C(=O)N2C(C(=O)[O-])=C(C[n+]3ccccc3)CS[C@H]12)c1csc(N)n1)C(=O)O [CAZ, Ceftazidime, reference compound]
- MIC (E. coli clinical isolate): > 64 µg/mL
- MIC [1]: > 64 µg/mL
- MIC [2]: > 64 µg/mL
- MIC (E. coli 8739): > 64 µg/mL
- MIC (P. aeruginosa 9027): > 64 µg/mL
- MIC (K. pneumoniae 700603): > 64 µg/mL
- MIC [3]: > 64 µg/mL
- MIC (A. baumannii 19606): > 64 µg/mL
- MIC (E. cloacae 700323): > 64 µg/mL
- MIC [4]: > 64 µg/mL

SMILES: Cc1sc(N)nc1/C(=N/O[C@@H](COc1ccc(C(=N)NC2CCNCC2)cc1)C(=O)O)C(=O)N[C@@H]1C(=O)N(OS(=O)(=O)O)C1(C)C [Example 1, (S)-2-((((Z)-1-(2-Amino-5-methylthiazol-4-yl)-2-(((S)-2,2-dimethyl-4-oxo-1-(sulfooxy)azetidin-3-yl)amino)-2-oxoethylidene)amino)oxy)-3-(4-(N-(piperidin-4-yl)carbamimidoyl)phenoxy)propanoic acid]
- MIC (E. coli clinical isolate): 4 µg/mL
- MIC [1]: 32 µg/mL
- MIC [2]: 64 µg/mL
- MIC (E. coli 8739): 4 µg/mL
- MIC (P. aeruginosa 9027): 8 µg/mL
- MIC (K. pneumoniae 700603): 32 µg/mL
- MIC [3]: 32 µg/mL
- MIC (A. baumannii 19606): 16 µg/mL
- MIC (E. cloacae 700323): 32 µg/mL
- MIC [4]: 16 µg/mL

SMILES: Cc1sc(N)nc1/C(=N/O[C@@H](COc1ccc(C(=N)N[C@@H]2CCCNC2)cc1)C(=O)O)C(=O)N[C@@H]1C(=O)N(OS(=O)(=O)O)C1(C)C [Example 2, (S)-2-((((Z)-1-(2-Amino-5-methylthiazol-4-yl)-2-(((S)-2,2-dimethyl-4-oxo-1-(sulfooxy)azetidin-3-yl)amino)-2-oxoethylidene)amino)oxy)-3-(4-(N-((R)-piperidin-3-yl)carbamimidoyl)phenoxy)propanoic acid]
- MIC (E. coli clinical isolate): 4 µg/mL
- MIC [1]: 16 µg/mL
- MIC [2]: 64 µg/mL
- MIC (E. coli 8739): 2 µg/mL
- MIC (P. aeruginosa 9027): 32 µg/mL
- MIC (K. pneumoniae 700603): 64 µg/mL
- MIC [3]: 32 µg/mL
- MIC (A. baumannii 19606): 16 µg/mL
- MIC (E. cloacae 700323): 32 µg/mL
- MIC [4]: 8 µg/mL

SMILES: Cc1sc(N)nc1/C(=N/O[C@@H](COc1ccc(C(=N)N[C@H]2CCNC2)cc1)C(=O)O)C(=O)N[C@@H]1C(=O)N(OS(=O)(=O)O)C1(C)C [Example 3, (S)-2-((((Z)-1-(2-Amino-5-methylthiazol-4-yl)-2-(((S)-2,2-dimethyl-4-oxo-1-(sulfooxy)azetidin-3-yl)amino)-2-oxoethylidene)amino)oxy)-3-(4-(N-((S)-pyrrolidin-3-yl)carbamimidoyl)phenoxy)propanoic acid]
- MIC (E. coli clinical isolate): 4 µg/mL
- MIC [1]: 32 µg/mL
- MIC [2]: 64 µg/mL
- MIC (E. coli 8739): 4 µg/mL
- MIC (P. aeruginosa 9027): 8 µg/mL
- MIC (K. pneumoniae 700603): 64 µg/mL
- MIC [3]: 32 µg/mL
- MIC (A. baumannii 19606): 32 µg/mL
- MIC (E. cloacae 700323): 32 µg/mL
- MIC [4]: 8 µg/mL

SMILES: Cc1sc(N)nc1/C(=N/O[C@@H](COc1ccc(C(=N)NC2CNC2)cc1)C(=O)O)C(=O)N[C@@H]1C(=O)N(OS(=O)(=O)O)C1(C)C [Example 4, (S)-2-((((Z)-1-(2-Amino-5-methylthiazol-4-yl)-2-(((S)-2,2-dimethyl-4-oxo-1-(sulfooxy)azetidin-3-yl)amino)-2-oxoethylidene)amino)oxy)-3-(4-(N-(azetidin-3-yl)carbamimidoyl)phenoxy)propanoic acid]
- MIC (E. coli clinical isolate): 4 µg/mL
- MIC [1]: 32 µg/mL
- MIC [2]: 32 µg/mL
- MIC (E. coli 8739): 4 µg/mL
- MIC (P. aeruginosa 9027): 4 µg/mL
- MIC (K. pneumoniae 700603): 64 µg/mL
- MIC [3]: 32 µg/mL
- MIC (A. baumannii 19606): 16 µg/mL
- MIC (E. cloacae 700323): 32 µg/mL
- MIC [4]: 8 µg/mL

SMILES: Cc1sc(N)nc1/C(=N/O[C@@H](COc1ccc(C(=N)N[C@H]2CCCNC2)cc1)C(=O)O)C(=O)N[C@@H]1C(=O)N(OS(=O)(=O)O)C1(C)C [Example 5, (S)-2-((((Z)-1-(2-Amino-5-methylthiazol-4-yl)-2-(((S)-2,2-dimethyl-4-oxo-1-(sulfooxy)azetidin-3-yl)amino)-2-oxoethylidene)amino)oxy)-3-(4-(N-((S)-piperidin-3-yl)carbamimidoyl)phenoxy)propanoic acid]
- MIC (E. coli clinical isolate): 4 µg/mL
- MIC [1]: 32 µg/mL
- MIC [2]: 64 µg/mL
- MIC (E. coli 8739): 4 µg/mL
- MIC (P. aeruginosa 9027): 4 µg/mL
- MIC (K. pneumoniae 700603): 64 µg/mL
- MIC [3]: 32 µg/mL
- MIC (A. baumannii 19606): 16 µg/mL
- MIC (E. cloacae 700323): 32 µg/mL
- MIC [4]: 4 µg/mL

SMILES: Cc1sc(N)nc1/C(=N/O[C@@H](COc1ccc(C(=N)N[C@@H]2CCNC2)cc1)C(=O)O)C(=O)N[C@@H]1C(=O)N(OS(=O)(=O)O)C1(C)C [Example 6, (S)-2-((((Z)-1-(2-Amino-5-methylthiazol-4-yl)-2-(((S)-2,2-dimethyl-4-oxo-1-(sulfooxy)azetidin-3-yl)amino)-2-oxoethylidene)amino)oxy)-3-(4-(N-((R)-pyrrolidin-3-yl)carbamimidoyl)phenoxy)propanoic acid]
- MIC (E. coli clinical isolate): 1 µg/mL
- MIC [1]: 8 µg/mL
- MIC [2]: 2 µg/mL
- MIC (E. coli 8739): 0.25 µg/mL
- MIC (P. aeruginosa 9027): 2 µg/mL
- MIC (K. pneumoniae 700603): 1 µg/mL
- MIC [3]: 1 µg/mL
- MIC (A. baumannii 19606): 8 µg/mL
- MIC (E. cloacae 700323): 4 µg/mL
- MIC [4]: 2 µg/mL

SMILES: CC1(C)[C@H](NC(=O)/C(=N\O[C@@H](COc2ccc(C(=N)N[C@@H]3CCNC3)cc2)C(=O)O)c2nc(N)sc2C(F)(F)F)C(=O)N1OS(=O)(=O)O [Example 7, (S)-2-((((Z)-1-(2-Amino-5-(trifluoromethyl)thiazol-4-yl)-2-(((S)-2,2-dimethyl-4-oxo-1-(sulfooxy)azetidin-3-yl)amino)-2-oxoethylidene)amino)oxy)-3-(4-(N-((R)-pyrrolidin-3-yl)carbamimidoyl)phenoxy)propanoic acid]
- MIC (E. coli clinical isolate): 32 µg/mL
- MIC [1]: 16 µg/mL
- MIC [2]: 32 µg/mL
- MIC (E. coli 8739): 8 µg/mL
- MIC (P. aeruginosa 9027): 16 µg/mL
- MIC (K. pneumoniae 700603): 8 µg/mL
- MIC [3]: 16 µg/mL
- MIC (A. baumannii 19606): 16 µg/mL
- MIC (E. cloacae 700323): 32 µg/mL
- MIC [4]: 8 µg/mL

SMILES: Cc1sc(N)nc1/C(=N/O[C@@H](COc1ccc(C(=N)N[C@@H]2CCNC2)cc1)C(=O)O)C(=O)N[C@@H]1C(=O)N(S(=O)(=O)O)[C@H]1C [Example 8, (S)-2-((((Z)-1-(2-amino-5-methylthiazol-4-yl)-2-(((2S,3S)-2-methyl-4-oxo-1-sulfoazetidin-3-yl)amino)-2-oxoethylidene)amino)oxy)-3-(4-(N-((R)-pyrrolidin-3-yl)carbamimidoyl)phenoxy)propanoic acid]
- MIC (E. coli clinical isolate): 1 µg/mL
- MIC [1]: 32 µg/mL
- MIC [2]: 64 µg/mL
- MIC (E. coli 8739): 0.5 µg/mL
- MIC (P. aeruginosa 9027): 1 µg/mL
- MIC (K. pneumoniae 700603): 64 µg/mL
- MIC [3]: 32 µg/mL
- MIC (A. baumannii 19606): 16 µg/mL
- MIC (E. cloacae 700323): 32 µg/mL
- MIC [4]: 16 µg/mL
